Results as given in PubChem BioAssay (NCI).
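Method: 48-hour compound exposure of cells in 96-well plates, five concentrations, linear interpolation of endpoints. TGI: concentration producing complete growth inhibition.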

Legend:
Assay in all cases: DTP human tumour cell line panel, 48 h
HOP-92 NSCLC = test system: HOP-92 NSCLC
NCI-H522 lung = test system: NCI-H522 lung
KM12 colon = test system: KM12 colon
SNB-19 CNS = test system: SNB-19 CNS
SR leukemia = test system: SR leukemia
OVCAR-3 ovarian = test system: OVCAR-3 ovarian
HCT-15 colon = test system: HCT-15 colon
TK-10 renal = test system: TK-10 renal
BT-549 breast = test system: BT-549 breast
SF-268 CNS = test system: SF-268 CNS
OVCAR-8 ovarian = test system: OVCAR-8 ovarian
LOX IMVI melanoma = test system: LOX IMVI melanoma
SK-OV-3 ovarian = test system: SK-OV-3 ovarian
MOLT-4 leukemia = test system: MOLT-4 leukemia
IGROV1 ovarian = test system: IGROV1 ovarian
SK-MEL-28 melanoma = test system: SK-MEL-28 melanoma
CAKI-1 renal = test system: CAKI-1 renal
U251 CNS = test system: U251 CNS
MCF7 breast = test system: MCF7 breast
COLO 205 colon = test system: COLO 205 colon
T-47D breast = test system: T-47D breast
MDA-MB-435 = test system: MDA-MB-435
NCI-H23 lung = test system: NCI-H23 lung
DU-145 prostate = test system: DU-145 prostate
MDA-N = test system: MDA-N
NCI-H226 lung = test system: NCI-H226 lung
PC-3 prostate = test system: PC-3 prostate
ACHN renal = test system: ACHN renal
SW-620 colon = test system: SW-620 colon
NCI/ADR-RES ovarian = test system: NCI/ADR-RES ovarian
HOP-62 NSCLC = test system: HOP-62 NSCLC
SK-MEL-5 melanoma = test system: SK-MEL-5 melanoma
RPMI-8226 leukemia = test system: RPMI-8226 leukemia
HCT-116 colon = test system: HCT-116 colon
UACC-257 melanoma = test system: UACC-257 melanoma
K-562 leukemia = test system: K-562 leukemia
M14 melanoma = test system: M14 melanoma
CCRF-CEM leukemia = test system: CCRF-CEM leukemia
MALME-3M melanoma = test system: MALME-3M melanoma
A549 NSCLC = test system: A549 NSCLC
SN12C renal = test system: SN12C renal
HS 578T breast = test system: HS 578T breast
UO-31 renal = test system: UO-31 renal
HL-60(TB) leukemia = test system: HL-60(TB) leukemia
SF-295 CNS = test system: SF-295 CNS
OVCAR-5 ovarian = test system: OVCAR-5 ovarian
SNB-75 CNS = test system: SNB-75 CNS
HT29 colon = test system: HT29 colon
NCI-H460 lung = test system: NCI-H460 lung
SK-MEL-2 melanoma = test system: SK-MEL-2 melanoma
OVCAR-4 ovarian = test system: OVCAR-4 ovarian
EKVX NSCLC = test system: EKVX NSCLC
UACC-62 melanoma = test system: UACC-62 melanoma
786-0 renal = test system: 786-0 renal
HCC-2998 colon = test system: HCC-2998 colon
MDA-MB-231 breast = test system: MDA-MB-231 breast
A498 renal = test system: A498 renal
RXF 393 renal = test system: RXF 393 renal
SF-539 CNS = test system: SF-539 CNS

Structure (SMILES): CCOP(=O)(OCC)C(Cc1ccccc1)N=C(c1ccccc1)c1ccccc1 (centres undefined)
- TGI (HOP-92 NSCLC): 27.5 µM
- TGI (NCI-H522 lung): 29.6 µM
- TGI (KM12 colon): 32.2 µM
- TGI (SNB-19 CNS): 32.3 µM
- TGI (SR leukemia): > 100 µM
- TGI (OVCAR-3 ovarian): 30.3 µM
- TGI (HCT-15 colon): 25 µM
- TGI (TK-10 renal): 23.6 µM
- TGI (BT-549 breast): 27 µM
- TGI (SF-268 CNS): 37.6 µM
- TGI (OVCAR-8 ovarian): 33.8 µM
- TGI (LOX IMVI melanoma): 24.7 µM
- TGI (SK-OV-3 ovarian): 28.5 µM
- TGI (MOLT-4 leukemia): 25.8 µM
- TGI (IGROV1 ovarian): 26.8 µM
- TGI (SK-MEL-28 melanoma): 31.3 µM
- TGI (CAKI-1 renal): 31.6 µM
- TGI (U251 CNS): 28.4 µM
- TGI (MCF7 breast): 31.2 µM
- TGI (COLO 205 colon): 28.7 µM
- TGI (T-47D breast): 26.6 µM
- TGI (MDA-MB-435): 27.8 µM
- TGI (NCI-H23 lung): 28.6 µM
- TGI (DU-145 prostate): 36.3 µM
- TGI (MDA-N): 29.1 µM
- TGI (NCI-H226 lung): 32.9 µM
- TGI (PC-3 prostate): 16.8 µM
- TGI (ACHN renal): 28.6 µM
- TGI (SW-620 colon): 25.2 µM
- TGI (NCI/ADR-RES ovarian): 28.7 µM
- TGI (HOP-62 NSCLC): 35.2 µM
- TGI (SK-MEL-5 melanoma): 25.5 µM
- TGI (RPMI-8226 leukemia): > 100 µM
- TGI (HCT-116 colon): 30.8 µM
- TGI (UACC-257 melanoma): 27.1 µM
- TGI (K-562 leukemia): 41.9 µM
- TGI (M14 melanoma): 30.4 µM
- TGI (CCRF-CEM leukemia): 37.1 µM
- TGI (MALME-3M melanoma): 40.9 µM
- TGI (A549 NSCLC): 24.2 µM
- TGI (SN12C renal): 35.2 µM
- TGI (HS 578T breast): 26.6 µM
- TGI (UO-31 renal): 24.4 µM
- TGI (HL-60(TB) leukemia): > 100 µM
- TGI (SF-295 CNS): 25.8 µM
- TGI (OVCAR-5 ovarian): 28.1 µM
- TGI (SNB-75 CNS): 24.2 µM
- TGI (HT29 colon): 27.6 µM
- TGI (NCI-H460 lung): 31.9 µM
- TGI (SK-MEL-2 melanoma): 38.2 µM
- TGI (OVCAR-4 ovarian): 38.3 µM
- TGI (EKVX NSCLC): 34.3 µM
- TGI (UACC-62 melanoma): 26.1 µM
- TGI (786-0 renal): 30.2 µM

Structure (SMILES): O=S(=O)(O)Nc1ccc(-c2nc3ccccc3s2)cc1Cl
- TGI (HOP-92 NSCLC): > 100 µM
- TGI (NCI-H522 lung): > 100 µM
- TGI (KM12 colon): > 100 µM
- TGI (SNB-19 CNS): > 100 µM
- TGI (SR leukemia): > 100 µM
- TGI (OVCAR-3 ovarian): > 100 µM
- TGI (HCT-15 colon): > 100 µM
- TGI (TK-10 renal): > 100 µM
- TGI (BT-549 breast): > 100 µM
- TGI (OVCAR-8 ovarian): > 100 µM
- TGI (LOX IMVI melanoma): > 100 µM
- TGI (SK-OV-3 ovarian): > 100 µM
- TGI (IGROV1 ovarian): > 100 µM
- TGI (HCC-2998 colon): > 100 µM
- TGI (SK-MEL-28 melanoma): > 100 µM
- TGI (CAKI-1 renal): > 100 µM
- TGI (U251 CNS): > 100 µM
- TGI (COLO 205 colon): > 100 µM
- TGI (T-47D breast): > 100 µM
- TGI (MDA-MB-435): > 100 µM
- TGI (NCI-H23 lung): > 100 µM
- TGI (DU-145 prostate): > 100 µM
- TGI (MDA-N): > 100 µM
- TGI (NCI-H226 lung): > 100 µM
- TGI (PC-3 prostate): > 100 µM
- TGI (ACHN renal): > 100 µM
- TGI (SW-620 colon): > 100 µM
- TGI (NCI/ADR-RES ovarian): > 100 µM
- TGI (HOP-62 NSCLC): > 100 µM
- TGI (SK-MEL-5 melanoma): > 100 µM
- TGI (RPMI-8226 leukemia): > 100 µM
- TGI (HCT-116 colon): > 100 µM
- TGI (MDA-MB-231 breast): > 100 µM
- TGI (UACC-257 melanoma): > 100 µM
- TGI (A498 renal): > 100 µM
- TGI (K-562 leukemia): > 100 µM
- TGI (M14 melanoma): > 100 µM
- TGI (RXF 393 renal): > 100 µM
- TGI (CCRF-CEM leukemia): > 100 µM
- TGI (MALME-3M melanoma): > 100 µM
- TGI (A549 NSCLC): > 100 µM
- TGI (SN12C renal): > 100 µM
- TGI (HS 578T breast): > 100 µM
- TGI (UO-31 renal): > 100 µM
- TGI (HL-60(TB) leukemia): > 100 µM
- TGI (SF-295 CNS): > 100 µM
- TGI (OVCAR-5 ovarian): > 100 µM
- TGI (SNB-75 CNS): > 100 µM
- TGI (SF-539 CNS): > 100 µM
- TGI (HT29 colon): > 100 µM
- TGI (NCI-H460 lung): > 100 µM
- TGI (SK-MEL-2 melanoma): > 100 µM
- TGI (OVCAR-4 ovarian): > 100 µM
- TGI (EKVX NSCLC): > 100 µM
- TGI (UACC-62 melanoma): > 100 µM
- TGI (786-0 renal): > 100 µM

Structure (SMILES): O/N=C1\CC2(N3CCOCC3)CCC1(Cc1ccccc1)CC2
- TGI (HOP-92 NSCLC): 89.2 µM
- TGI (NCI-H522 lung): > 100 µM
- TGI (KM12 colon): > 100 µM
- TGI (SNB-19 CNS): 63.5 µM
- TGI (SR leukemia): > 100 µM
- TGI (OVCAR-3 ovarian): > 100 µM
- TGI (HCT-15 colon): > 100 µM
- TGI (SF-268 CNS): 76.6 µM
- TGI (OVCAR-8 ovarian): 48.1 µM
- TGI (LOX IMVI melanoma): > 100 µM
- TGI (SK-OV-3 ovarian): 83 µM
- TGI (MOLT-4 leukemia): > 100 µM
- TGI (IGROV1 ovarian): > 100 µM
- TGI (HCC-2998 colon): > 100 µM
- TGI (SK-MEL-28 melanoma): > 100 µM
- TGI (CAKI-1 renal): > 100 µM
- TGI (U251 CNS): 38.3 µM
- TGI (MCF7 breast): > 100 µM
- TGI (COLO 205 colon): > 100 µM
- TGI (T-47D breast): > 100 µM
- TGI (MDA-MB-435): > 100 µM
- TGI (NCI-H23 lung): > 100 µM
- TGI (DU-145 prostate): > 100 µM
- TGI (MDA-N): > 100 µM
- TGI (NCI-H226 lung): 83.1 µM
- TGI (PC-3 prostate): > 100 µM
- TGI (ACHN renal): 63.4 µM
- TGI (SW-620 colon): > 100 µM
- TGI (NCI/ADR-RES ovarian): > 100 µM
- TGI (HOP-62 NSCLC): 47.8 µM
- TGI (SK-MEL-5 melanoma): > 100 µM
- TGI (HCT-116 colon): 90.6 µM
- TGI (MDA-MB-231 breast): 67 µM
- TGI (UACC-257 melanoma): > 100 µM
- TGI (A498 renal): 88.9 µM
- TGI (K-562 leukemia): > 100 µM
- TGI (M14 melanoma): > 100 µM
- TGI (RXF 393 renal): 42 µM
- TGI (CCRF-CEM leukemia): > 100 µM
- TGI (MALME-3M melanoma): > 100 µM
- TGI (A549 NSCLC): > 100 µM
- TGI (SN12C renal): > 100 µM
- TGI (UO-31 renal): > 100 µM
- TGI (HL-60(TB) leukemia): > 100 µM
- TGI (SF-295 CNS): 61.2 µM
- TGI (OVCAR-5 ovarian): > 100 µM
- TGI (SNB-75 CNS): 34.9 µM
- TGI (SF-539 CNS): 58.3 µM
- TGI (HT29 colon): > 100 µM
- TGI (NCI-H460 lung): > 100 µM
- TGI (SK-MEL-2 melanoma): 85 µM
- TGI (OVCAR-4 ovarian): 84.8 µM
- TGI (EKVX NSCLC): > 100 µM
- TGI (786-0 renal): 41.9 µM
